From patent US20240350463A1, “SMALL MOLECULE COMPOUNDS” (APERTOR PHARMACEUTICALS, INC., priority 2021, published 2024)

Key:
[1] = stability during semi-preparative HPLC; type: physicochemical; details: approximately one fifth transformed spontaneously to a more nonpolar compound
Description: To accumulate 35-desmethylrapamycin (RAP35) and 35-desmethyl-27-demethoxyrapamycin (RAP35/27) for characterization and bioactivity assays, a 7.2-L scale of fermentation was conducted. 7.2 L fermentation medium was prepared and aliquoted into eighteen 2 L Erlenmeyer flasks 20 mL of the seed culture was inoculated into each 2 L Erlenmeyer flask, which was then capped with 8-layer gauze. The fermentation was conducted at 28° C., 220 rpm for 4 days. To process the culture, the fermentation broth was centrifuged at 9,000 g for 10 min at room temperature, and the cell pellet was collected and combined. After transferring the cells into a 5 L glass beaker, 2 volumes of acetonitrile were added into 1 volume of the cells. The mixture was stirred vigorously using a magnetic stirrer at room temperature for 1 h. The mixing was halted, and the mixture was allowed to settle under gravity for 30 min. The solvent layer was poured into a 5 L Erlenmeyer flask, and another 2 volumes of acetonitrile was added into the cells for extraction. After three times of extraction in total, the solvent layers were combined and concentrated under reduced pressure. […] The absorbance at 278 nm wavelength was monitored. […]

[2] = system: mTOR activity (phospho-p70S6K); assay: phospho-p70S6K FACS in activated mouse T-cells; type: cell-based
[3] = system: conventional T cells; assay: culture of conventional T cells with RAP35; type: cell-based
[4] = system: Treg cells; assay: treatment of Treg cells with expander beads; type: cell-based; details: 100 nM
[5] = system: naïve CD4+ mouse T cells; assay: FACS of naïve CD4+ T cells for CD4+CD25+FOXP3+; details: 1 uM
[6] = system: CD8 cells isolated from p14 transgenic mice; assay: CD8 CTV-labelled proliferation assay; type: cell-based, mouse; details: activated for 72 hours; 10 nM, 100 nM, and 100 μM
Description: The five analogs and rapamycin were assayed for their effect on proliferation and correlation to p70S6K inhibitory activity. […] The proliferation was measured by FACS. The five analogs were tested at varying concentrations (10 nM, 100 nM, and 100 μM), activated for 72 hours with rapamycin and DMSO treated controls.
CD8 cells were isolated from p14 transgenic mice, then labelled with CTV. The labelled cells then were activated with plate-bound anti-CD3 (5 μg/mL) and soluble anti-CD28 (2 μg/mL), along with rapamycin, rapamycin analog, or DMSO. After activation of 48 hours and 72 hours, the cells were collected to assay the CVT labelling signal using flow cytometry. All rapamycin analogs decrease proliferation in CD8 cells, with varying potency (FIG. 12).

[7] = system: naïve CD4+ mouse T-cells; assay: expansion of CD62L+ memory T-cells (FACS); type: cell-based
Description: RAP23 was further evaluated by treating naïve CD4+ T-cells at multiple concentrations (1 nM to 1 uM) for expansion of CD62L+ memory T-cells. […] These 5 compounds were identified to have reduced immunosuppression (with improved safety) with maximum and durable expansion of memory T-cells.

**Q.** Which “stability in the process of semi-preparation” value [1] does the source give for `CO[C@H]1C[C@@H]2CC[C@@H](C)[C@@](O)(O2)C(=O)C(=O)N2CCCC[C@H]2C(=O)O[C@H](CC[C@@H]2CC[C@@H](O)[C@H](OC)C2)CC(=O)[C@H](C)/C=C(\C)[C@@H](O)CC(=O)[C@H](C)C[C@H](C)/C=C/C=C/C=C/1C` [RAP35/27A, (3R,6R,7E,9S,12R,14S,5E,17E,19E,21S,23S,26R,27R,34aS)-9,27-dihydroxy-3-(2-((1S,3R,4R)-4-hydroxy-3-methoxycyclohexyl)ethyl)-21-methoxy-6,8,12,14,20,26-hexamethyl-9,10,12,13,14,21,22,23,24,25,26,27,32,33,34,34a-hexadecahydro-3H-23,27-epoxypyrido[2,1-c][1]oxa[4]azacyclohentriacontine-1,5,11,28,29(4H,6H,31H)-pentaone] here?
**A.** tended to be unstable

**Q.** For `CO[C@H]1C[C@@H]2CC[C@@H](C)[C@@](O)(O2)C(=O)C(=O)N2CCCC[C@H]2C(=O)O[C@H](CC[C@@H]2CC[C@@H](O)[C@H](OC)C2)CC(=O)[C@H](C)/C=C(\C)[C@@H](O)[C@@H](OC)C(=O)[C@H](C)C[C@H](C)/C=C/C=C/C=C/1C` [RAP35, (3R,6R,7E,9R,10R,2R,14S,15E,17E,19E,21S,23S,26R,27R,34aS)-9,27-dihydroxy-3-(2-((1S,3R,4R)-4-hydroxy-3-methoxycyclohexyl)ethyl)-10,21-dimethoxy-6,8,12,14,20,26-hexamethyl-9,10,12,13,14,21,22,23,24,25,26,27,32,33,34,34a-hexadecahydro-3H-23,27-epoxypyrido[2,1-c][1]oxa[4]azacyclohentriacontine-1,5,11,28,29(4H,6H,31H)-pentaone], which p70S6 high cells ([2]; overnight stimulation, therapeutic concentrations (1-200 nM)) is on record?
**A.** significantly reduced

**Q.** What about the CCR7 expression [3] of the same molecule?
**A.** increased

**Q.** And the CD45RO expression [3]?
**A.** decreased

**Q.** And the “level of phosphorylation of 4EBP1 and S6” value ([3]; 100 nM)?
**A.** mTOR pathway was being targeted

**Q.** What about the anti-inflammatory effects ([3]; Cell Proliferation Dye and phenotypic markers) of the same molecule?
**A.** promising anti-inflammatory effects

**Q.** What about the “expression of CCR7” value [4] of the same molecule?
**A.** reduce

**Q.** What about the “expression of CD45RO” value [4] of the same molecule?
**A.** reduce

**Q.** What about the “expression of CXCR3” value [4] of the same molecule?
**A.** reduce

**Q.** And the “phosphorylation of 4EBP1” value [4]?
**A.** reduce

**Q.** And the “phosphorylation of S6” value [4]?
**A.** reduce

**Q.** And the effect on differentiation [5]?
**A.** strong effect

**Q.** With `CO[C@H]1C[C@@H]2CC[C@@H](C)[C@@](O)(O2)C(=O)C(=O)N2CCCC[C@H]2C(=O)O[C@H]([C@H](C)C[C@@H]2CC[C@@H](O)[C@H](OC)C2)CC(=O)[C@H](C)/C=C(\C)[C@@H](O)[C@@H](OC)C(=O)[C@H](C)CC/C=C/C=C/C=C/1C` [RAP23, (3S,6R,7E,9R,10R,12R,15E,17E,19E,21 S,23S,26R,27R,34aS)-9,27-dihydroxy-3-((R)-1-((1S,3R,4R)-4-hydroxy-3-methoxycyclohexyl)propan-2-yl)-10,21-dimethoxy-6,8,12,20,26-pentamethyl-9,10,12,13,14,21,22,23,24,25,26,27,32,33,34,34a-hexadecahydro-3H-23,27-epoxypyrido[2,1-c][1]oxa[4]azacyclohentriacontine-1,5,11,28,29(41H,6H,31H)-pentaone] as the molecule, how does the “inhibition of p70S6 high signal” value ([2]; even at 1 uM) read?
**A.** never fully inhibited

**Q.** What about the “proliferation relative to RAP35 and rapamycin” value [6] of the same molecule?
**A.** increased proliferation

**Q.** What about the “generation of memory versus inhibition of proliferation” value [7] of the same molecule?
**A.** promote potent generation of memory without potently inhibiting proliferation

**Q.** And the “phospho-p70S6K low/CD62L+ high phenotype relative to all doses of rapamycin” value ([7]; 1 nM to 1 uM)?
**A.** reduced

**Q.** What about the “portion of cells with phospho-p70S6K high/CD62L+ high phenotype” value ([7]; 1 nM to 1 uM) of the same molecule?
**A.** 7-10%
